Reference: US20230183292A1, “IMMUNOMODULATORS” (priority 2020, published 2023)
pIC50: −log10 of the molar value. Starred links: 1 amine or outer side, 2 acyl side, 3 side chain; linkers in the order of their positions; H or OH if unused. Positions of bridges follow the written chain, without caps; N, C: chain ends. Non-standard residues stand in square brackets, D forms with d. Residues, ends and D or L forms follow the SMILES beside them. *: point of attachment. Chenodeoxycholyl = C[C@H](CCC(=O)*)[C@H]1CC[C@H]2[C@@H]3[C@H](O)C[C@@H]4C[C@H](O)CC[C@]4(C)[C@H]3CC[C@]12C; Cholyl = C[C@H](CCC(=O)*)[C@H]1CC[C@H]2[C@@H]3[C@H](O)C[C@@H]4C[C@H](O)CC[C@]4(C)[C@H]3C[C@H](O)[C@]12C; X24 = C[C@H](CCC(=O)*)[C@H]1CC[C@H]2[C@@H]3[C@H](O)[C@H](O)[C@@H]4C[C@H](O)CC[C@]4(C)[C@H]3CC[C@]12C; X23 = C[C@H](CCC(=O)*)[C@H]1CC[C@H]2[C@@H]3C(=O)[C@H](O)[C@@H]4C[C@H](O)CC[C@]4(C)[C@H]3CC[C@]12C; X14 = C[C@H](CCC(=O)*)[C@H]1CC[C@H]2[C@H]3C(C[C@H](O)[C@]12C)[C@@]1(C)CC[C@@H](O)C[C@H]1C[C@H]3O; X10 = C[C@H](CCC(=O)*)[C@H]1CC[C@H]2[C@@H]3C(=O)C[C@@H]4C[C@H](O)CC[C@]4(C)[C@H]3CC(=O)[C@]12C; X19 = C[C@H](CCC(=O)*)[C@H]1CC[C@H]2[C@@H]3CC(=O)[C@@H]4C[C@H](O)CC[C@]4(C)[C@H]3CC[C@]12C; X33 = C[C@H](CCC(=O)*)[C@H]1CC[C@H]2[C@@H]3C(=O)C[C@@H]4C[C@H](O)CC[C@]4(C)[C@H]3CC[C@]12C; X16 = C[C@H](CCC(=O)*)[C@H]1CC[C@H]2[C@@H]3CC(=O)[C@@H]4CC(=O)CC[C@]4(C)[C@H]3CC[C@]12C; X13 = CC(C)CNC(=O)Cn1cc(C[C@H](N[*:1])C(=O)[*:2])c2ccccc21; Trp(1-CH2COOH) = N[C@@H](Cc1cn(CC(=O)O)c2ccccc12)C(=O)O; X31 = CCOC(=O)Cn1cc(C[C@H](N[*:1])C(=O)[*:2])c2ccccc21; Hyp = O=C(O)[C@@H]1C[C@@H](O)CN1; NMeNle = CCCC[C@H](NC)C(=O)O; NMeA = CN[C@@H](C)C(=O)O; Dab = NCC[C@H](N)C(=O)O; Dap = NC[C@H](N)C(=O)O

Biological target: T1, PD-1/PD-L1 (Homo sapiens, UniProt Q9NZQ7)
T1 construct: TVMV protease site (C); made in house; host or cells: HEK293T cells
Assay: PD-1/PD-L1 Homogenous Time-Resolved Fluorescence (HTRF) binding assay
Conditions: PD-L1-His 10 nM, PD-1-Ig 20 nM; read-out: HTRF IC50
Text: The ability of the compounds of formula (I) to bind to PD-L1 was investigated using a PD-1/PD-L1 Homogenous Time-Resolved Fluorescence (HTRF) binding assay.
The interaction of PD-1 and PD-L1 can be assessed using soluble, purified preparations of the extracellular domains of the two proteins. The PD-1 and PD-L1 protein extracellular domains were expressed as fusion proteins with detection tags, for PD-1, the tag was the Fc portion of Immunoglobulin (PD-1-Ig) and for PD-L1 it was the 6 histidine motif (PD-L1-His). All binding studies were performed in an HTRF assay buffer consisting of dPBS supplemented with 0.1% […] bovine serum albumin and 0.05% (v/v) Tween-20. For the h/PD-L1-His binding assay, inhibitors were pre-incubated with PD-L1-His (10 nM final) for 15 m in 4 μl of assay buffer, followed by addition of PD-1-Ig (20 nM final) in 1 μl of assay buffer and further incubation for 15 m. HTRF detection was achieved using europium crypate-labeled anti-Ig (1 nM final) and allophycocyanin (APC) labeled anti-His (20 nM final). Antibodies were diluted in HTRF detection buffer and 5 μl was dispensed on top of the binding reaction. The reaction mixture was allowed to equilibrate for 30 minutes and the resulting signal (665 nm/620 nm ratio) was obtained using an EnVision fluorometer. Additional binding assays were established between the human proteins PD-1-Ig/PD-L2-His (20 & 5 nM, respectively) and CD80-His/PD-L1-Ig (100 & 10 nM, respectively).
Recombinant Proteins: Human PD-1 (25-167) with a C-terminal human Fc domain of immunoglobulin G (Ig) epitope tag [hPD-1 (25-167)-3S-IG] and human PD-L1 (18-239) with a C-terminal His epitope tag [hPD-L1(18-239)-TVMV-His] were expressed in HEK293T cells and purified sequentially by ProteinA affinity chromatography and size exclusion chromatography. Human PD-L2-His and CD80-His was obtained through commercial sources.
Table 1 lists the IC50 values for representative examples of this disclosure measured in the PD-1/PD-L1 Homogenous Time-Resolved Fluorescence (HTRF) binding assay.

T1 sequence (Q9NZQ7 18-239): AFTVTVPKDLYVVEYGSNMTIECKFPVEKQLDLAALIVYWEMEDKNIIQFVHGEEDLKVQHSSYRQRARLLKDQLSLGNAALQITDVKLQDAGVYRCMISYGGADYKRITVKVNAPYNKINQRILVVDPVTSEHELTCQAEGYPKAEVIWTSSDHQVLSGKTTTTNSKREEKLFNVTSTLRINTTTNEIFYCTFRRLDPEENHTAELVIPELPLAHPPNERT

Row | SMILES | pIC50
1 | CCCC[C@H]1C(=O)N(C)[C@@H](CCCC)C(=O)N[C@@H](CC(C)C)C(=O)N[C@H](C(=O)NCC(N)=O)CSCC(=O)N[C@@H](Cc2ccc(O)cc2)C(=O)N(C)[C@@H](C)C(=O)N[C@@H](CC(N)=O)C(=O)N2CCC[C@H]2C(=O)N[C@@H](CNC(=O)CC[C@@H](C)[C@H]2CC[C@H]3[C@@H]4C(=O)[C@H](O)[C@@H]5C[C@H](O)CC[C@]5(C)[C@H]4CC[C@]23C)C(=O)N[C@@H](CC(C)C)C(=O)N2C[C@H](O)C[C@H]2C(=O)N[C@@H](Cc2c[nH]c3ccccc23)C(=O)N[C@@H](CCNC(=O)CC[C@@H](C)[C@H]2CC[C@H]3[C@@H]4[C@H](O)[C@H](O)[C@@H]5C[C@H](O)CC[C@]5(C)[C@H]4CC[C@]23C)C(=O)N[C@@H](Cc2cn(CC(=O)O)c3ccccc23)C(=O)N1C [Example 1015] ({CH2CO}-Y[NMeA]NP[Dap](X23)L[Hyp]W[Dab](X24)[Trp(1-CH2COOH)][NMeNle][NMeNle]LCG-NH2; thioether N-14) | 8.03
2 | CCCC[C@H]1C(=O)N(C)[C@@H](CCCC)C(=O)N[C@@H](CC(C)C)C(=O)N[C@H](C(=O)NCC(N)=O)CSCC(=O)N[C@@H](Cc2ccc(O)cc2)C(=O)N(C)[C@@H](C)C(=O)N[C@@H](CC(N)=O)C(=O)N2CCC[C@H]2C(=O)N[C@@H](CNC(=O)CC[C@@H](C)[C@H]2CC[C@H]3[C@@H]4C(=O)C[C@@H]5C[C@H](O)CC[C@]5(C)[C@H]4CC[C@]23C)C(=O)N[C@@H](CC(C)C)C(=O)N2C[C@H](O)C[C@H]2C(=O)N[C@@H](Cc2c[nH]c3ccccc23)C(=O)N[C@@H](CCNC(=O)CC[C@@H](C)[C@H]2CC[C@H]3[C@@H]4C(=O)C[C@@H]5C[C@H](O)CC[C@]5(C)[C@H]4CC[C@]23C)C(=O)N[C@@H](Cc2cn(CC(=O)O)c3ccccc23)C(=O)N1C [Example 1016] ({CH2CO}-Y[NMeA]NP[Dap](X33)L[Hyp]W[Dab](X33)[Trp(1-CH2COOH)][NMeNle][NMeNle]LCG-NH2; thioether N-14) | 7.92
3 | CCCC[C@H]1C(=O)N(C)[C@@H](CCCC)C(=O)N[C@@H](CC(C)C)C(=O)N[C@H](C(=O)NCC(N)=O)CSCC(=O)N[C@@H](Cc2ccc(O)cc2)C(=O)N(C)[C@@H](C)C(=O)N[C@@H](CC(N)=O)C(=O)N2CCC[C@H]2C(=O)N[C@@H](CNC(=O)CC[C@@H](C)[C@H]2CC[C@H]3[C@@H]4CC(=O)[C@@H]5C[C@H](O)CC[C@]5(C)[C@H]4CC[C@]23C)C(=O)N[C@@H](CC(C)C)C(=O)N2C[C@H](O)C[C@H]2C(=O)N[C@@H](Cc2c[nH]c3ccccc23)C(=O)N[C@@H](CCNC(=O)CC[C@@H](C)[C@H]2CC[C@H]3[C@@H]4CC(=O)[C@@H]5C[C@H](O)CC[C@]5(C)[C@H]4CC[C@]23C)C(=O)N[C@@H](Cc2cn(CC(=O)O)c3ccccc23)C(=O)N1C [Example 1017] ({CH2CO}-Y[NMeA]NP[Dap](X19)L[Hyp]W[Dab](X19)[Trp(1-CH2COOH)][NMeNle][NMeNle]LCG-NH2; thioether N-14) | 7.82
4 | CCCC[C@H]1C(=O)N(C)[C@@H](CCCC)C(=O)N[C@@H](CC(C)C)C(=O)N[C@H](C(=O)NCC(N)=O)CSCC(=O)N[C@@H](Cc2ccc(O)cc2)C(=O)N(C)[C@@H](C)C(=O)N[C@@H](CC(N)=O)C(=O)N2CCC[C@H]2C(=O)N[C@@H](CNC(=O)CC[C@@H](C)[C@H]2CC[C@H]3[C@@H]4C(=O)C[C@@H]5C[C@H](O)CC[C@]5(C)[C@H]4CC(=O)[C@]23C)C(=O)N[C@@H](CC(C)C)C(=O)N2C[C@H](O)C[C@H]2C(=O)N[C@@H](Cc2c[nH]c3ccccc23)C(=O)N[C@@H](CCNC(=O)CC[C@@H](C)[C@H]2CC[C@H]3[C@@H]4C(=O)C[C@@H]5C[C@H](O)CC[C@]5(C)[C@H]4CC(=O)[C@]23C)C(=O)N[C@@H](Cc2cn(CC(=O)O)c3ccccc23)C(=O)N1C [Example 1018] ({CH2CO}-Y[NMeA]NP[Dap](X10)L[Hyp]W[Dab](X10)[Trp(1-CH2COOH)][NMeNle][NMeNle]LCG-NH2; thioether N-14) | 8.21
5 | CCCC[C@H]1C(=O)N(C)[C@@H](CCCC)C(=O)N[C@@H](CC(C)C)C(=O)N[C@H](C(=O)NCC(N)=O)CSCC(=O)N[C@@H](Cc2ccc(O)cc2)C(=O)N(C)[C@@H](C)C(=O)N[C@@H](CC(N)=O)C(=O)N2CCC[C@H]2C(=O)N[C@@H](CNC(=O)CC[C@@H](C)[C@H]2CC[C@H]3[C@@H]4CC(=O)[C@@H]5CC(=O)CC[C@]5(C)[C@H]4CC[C@]23C)C(=O)N[C@@H](CC(C)C)C(=O)N2C[C@H](O)C[C@H]2C(=O)N[C@@H](Cc2c[nH]c3ccccc23)C(=O)N[C@@H](CCNC(=O)CC[C@@H](C)[C@H]2CC[C@H]3[C@@H]4CC(=O)[C@@H]5CC(=O)CC[C@]5(C)[C@H]4CC[C@]23C)C(=O)N[C@@H](Cc2cn(CC(=O)O)c3ccccc23)C(=O)N1C [Example 1019] ({CH2CO}-Y[NMeA]NP[Dap](X16)L[Hyp]W[Dab](X16)[Trp(1-CH2COOH)][NMeNle][NMeNle]LCG-NH2; thioether N-14) | 7.89
6 | CCCC[C@H]1C(=O)N(C)[C@@H](CCCC)C(=O)N[C@@H](CC(C)C)C(=O)N[C@H](C(=O)NCC(N)=O)CSCC(=O)N[C@@H](Cc2ccc(O)cc2)C(=O)N(C)[C@@H](C)C(=O)N[C@@H](CC(N)=O)C(=O)N2CCC[C@H]2C(=O)N[C@@H](CNC(=O)CC[C@@H](C)[C@H]2CC[C@H]3[C@@H]4[C@H](O)C[C@@H]5C[C@H](O)CC[C@]5(C)[C@H]4CC[C@]23C)C(=O)N[C@@H](CC(C)C)C(=O)N2C[C@H](O)C[C@H]2C(=O)N[C@@H](Cc2c[nH]c3ccccc23)C(=O)N[C@@H](CCNC(=O)CC[C@@H](C)[C@H]2CC[C@H]3[C@@H]4[C@H](O)C[C@@H]5C[C@H](O)CC[C@]5(C)[C@H]4CC[C@]23C)C(=O)N[C@@H](Cc2cn(CC(=O)OCC)c3ccccc23)C(=O)N1C [Example 2001] ({CH2CO}-Y[NMeA]NP[Dap](Chenodeoxycholyl)L[Hyp]W[Dab](Chenodeoxycholyl)[X31][NMeNle][NMeNle]LCG-NH2; thioether N-14) | 6.66
7 | CCCC[C@H]1C(=O)N(C)[C@@H](CCCC)C(=O)N[C@@H](CC(C)C)C(=O)N[C@H](C(=O)NCC(N)=O)CSCC(=O)N[C@@H](Cc2ccc(O)cc2)C(=O)N(C)[C@@H](C)C(=O)N[C@@H](CC(N)=O)C(=O)N2CCC[C@H]2C(=O)N[C@@H](CNC(=O)CC[C@@H](C)[C@H]2CC[C@H]3[C@@H]4[C@H](O)C[C@@H]5C[C@H](O)CC[C@]5(C)[C@H]4C[C@H](O)[C@]23C)C(=O)N[C@@H](CC(C)C)C(=O)N2C[C@H](O)C[C@H]2C(=O)N[C@@H](Cc2c[nH]c3ccccc23)C(=O)N[C@@H](CCNC(=O)CC[C@@H](C)[C@H]2CC[C@H]3[C@H]4C(C[C@H](O)[C@]23C)[C@@]2(C)CC[C@@H](O)C[C@H]2C[C@H]4O)C(=O)N[C@@H](Cc2cn(CC(=O)NCC(C)C)c3ccccc23)C(=O)N1C (stereo partly shown) [Example 2002] ({CH2CO}-Y[NMeA]NP[Dap](Cholyl)L[Hyp]W[Dab](X14)[X13][NMeNle][NMeNle]LCG-NH2; thioether N-14) | 5.48
